# Patent US12528826B2, “[1,4]oxazepino[2,3-c]quinolinone derivatives as BCL6 inhibitors” (Cancer Research Technology Limited, priority 2019, dated 2026)
# Target: T1, Trx-6×His-BCL6 (human BCL6 BTB domain covering amino-acid sequence 5-129) (Homo sapiens, UniProt P41182)
# T1 construct: made in house
# Experiment: HTRF assay (BCL6 / BCOR peptide)
# Type: binding
# Conditions: 1 nM Trx-6×His-BCL6, 300 nM BCOR-AF633 peptide, 2 hours incubation at room temperature; read-out: HTRF avg pIC50 (converted)
# Procedure: After 2 hours incubation at room temperature the plate was read on a Pherastar FSX (BMG Labtech) plate reader equipped with 337 nm laser excitation filter, a first emission filter at 620 nm and a second emission filter at 665 nm. The % inhibition at each concentration was calculated by normalising FRET ratio to the appropriate high (DMSO with all reagents) and low (DMSO without BCL6) controls.
row,IC50 [µM],Compound
1,0.0123,"Cn1c(=O)c2c(c3cc(Nc4nc(N5CC[C@@H](F)[C@@H](F)C5)ncc4Cl)ccc31)N[C@@H](C1CC1)C(F)(F)CO2 (racemic) [Example 10a, (S)-10-((5-chloro-2-((3S,4R)-3,4-difluoropiperidin-1-yl)pyrimidin-4-yl)amino)-2-cyclopropyl-3,3-difluoro-7-methyl-1,2,3,4-tetrahydro-[1,4]oxazepino[2,3-c]quinolin-6(7H)-one; (S)-10-((5-chloro-2-((3R,4S)-3,4-difluoropiperidin-1-yl)pyrimidin-4-yl)amino)-2-cyclopropyl-3,3-difluoro-7-methyl-1,2,3,4-tetrahydro-[1,4]oxazepino[2,3-c]quinolin-6(7H)-one]"
2,0.0158,"Cn1c(=O)c2c(c3cc(Nc4nc(N5CC[C@@H](F)[C@H](F)C5)ncc4Cl)ccc31)N[C@@H](C1CC1)C(F)(F)CO2 (racemic) [Example 10b, (S)-10-((5-chloro-2-((3S,4S)-3,4-difluoropiperidin-1-yl)pyrimidin-4-yl)amino)-2-cyclopropyl-3,3-difluoro-7-methyl-1,2,3,4-tetrahydro-[1,4]oxazepino[2,3-c]quinolin-6(7H)-one; (S)-10-((5-chloro-2-((3R,4R)-3,4-difluoropiperidin-1-yl)pyrimidin-4-yl)amino)-2-cyclopropyl-3,3-difluoro-7-methyl-1,2,3,4-tetrahydro-[1,4]oxazepino[2,3-c]quinolin-6(7H)-one]"
3,0.00501,"COC1CCCN(c2ncc(Cl)c(Nc3ccc4c(c3)c3c(c(=O)n4C)OCC(F)(F)[C@H](C4CC4)N3)n2)C1 (mixture of isomers) [Example 10c, (S)-10-((5-chloro-2-((R)-3-methoxypiperidin-1-yl)pyrimidin-4-yl)amino)-2-cyclopropyl-3,3-difluoro-7-methyl-1,2,3,4-tetrahydro-[1,4]oxazepino[2,3-c]quinolin-6(7H)-one; (S)-10-((5-chloro-2-((S)-3-methoxypiperidin-1-yl)pyrimidin-4-yl)amino)-2-cyclopropyl-3,3-difluoro-7-methyl-1,2,3,4-tetrahydro-[1,4]oxazepino[2,3-c]quinolin-6(7H)-one]"
4,0.0209,"Cn1c(=O)c2c(c3cc(Nc4nc(N5CC[C@@H](F)[C@@H](F)C5)ncc4F)ccc31)N[C@@H](C1CC1)C(F)(F)CO2 (racemic) [Example 10d, (S)-10-((5-fluoro-2-((3S,4R)-3,4-difluoropiperidin-1-yl)pyrimidin-4-yl)amino)-2-cyclopropyl-3,3-difluoro-7-methyl-1,2,3,4-tetrahydro-[1,4]oxazepino[2,3-c]quinolin-6(7H)-one; (S)-10-((5-fluoro-2-((3R,4S)-3,4-difluoropiperidin-1-yl)pyrimidin-4-yl)amino)-2-cyclopropyl-3,3-difluoro-7-methyl-1,2,3,4-tetrahydro-[1,4]oxazepino[2,3-c]quinolin-6(7H)-one]"
5,0.0331,"CCC1CCCN(c2ncc(Cl)c(Nc3ccc4c(c3)c3c(c(=O)n4C)OCC(F)(F)[C@H](C4CC4)N3)n2)C1 (mixture of isomers) [Example 11b, (S)-10-((5-chloro-2-((R)-3-ethylpiperidin-1-yl)pyrimidin-4-yl)amino)-2-cyclopropyl-3,3-difluoro-7-methyl-1,2,3,4-tetrahydro-[1,4]oxazepino[2,3-c]quinolin-6(7H)-one:(S)-10-((5-chloro-2-((S)-3-ethylpiperidin-1-yl)pyrimidin-4-yl)amino)-2-cyclopropyl-3,3-difluoro-7-methyl-1,2,3,4-tetrahydro-[1,4]oxazepino[2,3-c]quinolin-6(7H)-one (1:1)]"
6,0.055,"CC1CCCCN(c2ncc(Cl)c(Nc3ccc4c(c3)c3c(c(=O)n4C)OCC(F)(F)[C@H](C4CC4)N3)n2)C1 (mixture of isomers) [Example 11c, (S)-10-((5-chloro-2-((R)-3-methylazepan-1-yl)pyrimidin-4-yl)amino)-2-cyclopropyl-3,3-difluoro-7-methyl-1,2,3,4-tetrahydro-[1,4]oxazepino[2,3-c]quinolin-6(7H)-one:(S)-10-((5-chloro-2-((S)-3-methylazepan-1-yl)pyrimidin-4-yl)amino)-2-cyclopropyl-3,3-difluoro-7-methyl-1,2,3,4-tetrahydro-[1,4]oxazepino[2,3-c]quinolin-6(7H)-one (1:1)]"
7,0.0646,"CC1CCCN(c2ncc(Cl)c(Nc3ccc4c(c3)c3c(c(=O)n4C)OCC(F)(F)[C@H](C4CC4)N3)n2)CC1 (mixture of isomers) [Example 11d, (S)-10-((5-chloro-2-((R)-4-methylazepan-1-yl)pyrimidin-4-yl)amino)-2-cyclopropyl-3,3-difluoro-7-methyl-1,2,3,4-tetrahydro-[1,4]oxazepino[2,3-c]quinolin-6(7H)-one:(S)-10-((5-chloro-2-((S)-4-methylazepan-1-yl)pyrimidin-4-yl)amino)-2-cyclopropyl-3,3-difluoro-7-methyl-1,2,3,4-tetrahydro-[1,4]oxazepino[2,3-c]quinolin-6(7H)-one (1:1)]"
8,0.00562,"Cn1c(=O)c2c(c3cc(Nc4nc(N5CC(O)CC6(CC6)C5)ncc4Cl)ccc31)N[C@@H](C1CC1)C(F)(F)CO2 (mixture of isomers) [Example 11h, (S)-10-((5-chloro-2-((R)-7-hydroxy-5-azaspiro[2.5]octan-5-yl)pyrimidin-4-yl)amino)-2-cyclopropyl-3,3-difluoro-7-methyl-1,2,3,4-tetrahydro-[1,4]oxazepino[2,3-c]quinolin-6(7H)-one:(S)-10-((5-chloro-2-((S)-7-hydroxy-5-azaspiro[2.5]octan-5-yl)pyrimidin-4-yl)amino)-2-cyclopropyl-3,3-difluoro-7-methyl-1,2,3,4-tetrahydro-[1,4]oxazepino[2,3-c]quinolin-6(7H)-one (1:1)]"
9,0.00389,"COCC(C)CNc1ncc(Cl)c(Nc2ccc3c(c2)c2c(c(=O)n3C)OCC(F)(F)[C@H](C3CC3)N2)n1 (mixture of isomers) [Example 11m, (S)-10-((5-chloro-2-(((R)-3-methoxy-2-methylpropyl)amino)pyrimidin-4-yl)amino)-2-cyclopropyl-3,3-difluoro-7-methyl-1,2,3,4-tetrahydro-[1,4]oxazepino[2,3-c]quinolin-6(7H)-one:(S)-10-((5-chloro-2-(((S)-3-methoxy-2-methylpropyl)amino)pyrimidin-4-yl)amino)-2-cyclopropyl-3,3-difluoro-7-methyl-1,2,3,4-tetrahydro-[1,4]oxazepino[2,3-c]quinolin-6(7H)-one (1:1)]"
10,0.01,"Cn1c(=O)c2c(c3cc(Nc4nc(N5CCCC(C(F)F)C5)ncc4Cl)ccc31)N[C@@H](C1CC1)C(F)(F)CO2 (mixture of isomers) [Example 11r, (S)-10-((5-chloro-2-((R)-3-(difluoromethyl)piperidin-1-yl)pyrimidin-4-yl)amino)-2-cyclopropyl-3,3-difluoro-7-methyl-1,2,3,4-tetrahydro-[1,4]oxazepino[2,3-c]quinolin-6(7H)-one:(S)-10-((5-chloro-2-((S)-3-(difluoromethyl)piperidin-1-yl)pyrimidin-4-yl)amino)-2-cyclopropyl-3,3-difluoro-7-methyl-1,2,3,4-tetrahydro-[1,4]oxazepino[2,3-c]quinolin-6(7H)-one (1:1)]"
